The source of these data is publication PMC6072853 (Frontiers in Pharmacology, 2018).

Common to all, as to type: cell-based, human
In experiment [1] the test system is T47D. As to the kind of experiment: MTT antiproliferative assay, T47D. The conditions noted are these: Homo sapiens, 72 h, read-out: Growth inhibition (%) ± SEM. The text has this: (§1) Gynecological cancer cell lines, including ovarian (A2780), cervical (HeLa), and breast cancer cell lines (MCF7, T47D, MDA-MB-231, and MDA-MB-361) were purchased from the European Collection of Authenticated Cell Cultures (ECACC, Salisbury, United Kingdom). Additional cervical cell lines (SiHa and C33A) and a non-cancerous immortalized, mammary gland epithelial cell line (hTERT-HME1) were purchased from LGC Standards GmbH (Wesel, Germany). Non-cancerous fibroblast cells (MRC-5) were also obtained from the ECACC. All cells were cultured in minimal essential medium supplemented with 10% fetal bovine serum, 1% non-essential amino acids, and 1% antibiotic-antimycotic mixture, in humidified air containing 5% CO2 at 37°C. Immortalized hTERT-HME1 cells were maintained in serum-free mammary epithelial cell growth medium (MEGM) supplemented with insulin, human epidermal growth factor (hEGF), hydrocortisone, bovine pituitary extract, and an antibiotic-antimycotic mixture. All the medium and supplements were purchased from Lonza Group Ltd. (Basel, Switzerland).
(§2) The antiproliferative properties of the compounds were assessed by an MTT assay ([Mosmann, 1983]). Cells were seeded onto 96-well microplates at a density of 10,000 cells/well (MDA-MB-361 and C33A) or 5,000 cells/well (all other cell lines). After an overnight incubation, fresh medium containing the test compounds (at a concentration of 10 or 30 μM) was added. After incubation for 72 h at 37°C in humidified air, [3-(4,5-dimethylthiazol-2-yl)-2,5-diphenyltetrazolium bromide] (MTT) solution (5 mg/mL) was added. Purple formazan crystals were formed by the living cells during a 4 h contact period, which were assayed by spectrophotometry after having been dissolved in 100 μL DMSO. Untreated cells served as control, and cisplatin (CIS) (Ebewe Pharma GmbH, Unterach, Austria) was used as a reference compound. […] Two independent measurements were performed with five parallel wells. To present preliminary data concerning tumor selectivity of the potent compounds, the procedure was repeated on MRC-5 fibroblast and hTERT-HME1 immortalized mammary gland epithelial cells under the same experimental conditions.
(Tetrazolium dyes change colour on reduction, which living cells bring about.)

Experiment [2] deals with HeLa cells. As to the kind of experiment: Fluorescent double staining (Hoechst 33258 / propidium iodide) morphology. As to conditions: 24 h, 1.0, 3.0 or 5.0 μM. Here is the method:
Fluorescent double staining was performed in order to detect apoptosis induction and morphological changes using fluorescent microscopy. HeLa cells were seeded into a 96-well plate at the density of 3,000Ȓ5,000 cells per well. After an overnight incubation, the cells were treated with various concentrations of the test compounds for 24 h. The treated cells were then incubated with a fluorescent staining solution (containing Hoechst 33258 and propidium iodide, 500 and 300 μg/mL, respectively) for an hour. After staining, the cells were analyzed using a fluorescent microscope (Nikon ECLIPSE 146 TS100, Nikon Instruments Europe, Amstelveen, Netherlands) equipped with appropriate optical filters. For all different conditions, at least six fields were recorded with an attached QCapture CCD camera. This way cells with an intact, apoptotic or necrotic morphology can be distinguished based on their different nuclear morphological appearance and distinct membrane integrity.

The test system of experiment [3] is caspase-8. As to the kind of experiment: Caspase-8 activity colorimetric assay. The conditions noted are these: HeLa. The protocol: (§3) In order to detect, whether the test compounds induce programmed cell death, the activity of caspase-3 was determined by a colorimetric assay. To elucidate the exact pathway of apoptosis, activities of caspase-8 and caspase-9 were additionally determined by colorimetric kits. In all cases approximately 12 million cells were treated with appropriate concentrations of the compounds for 24 or 72 h. After the treatment, the cells were scraped and the enzyme activities were determined by means of colorimetric assays mentioned above. All kits were purchased from Abnova Corp. (Taipei, Taiwan) and used in accordance with the instructions of the manufacturer.

For experiment [4], the system named is MDA-MB-231. As to the kind of experiment: MTT antiproliferative assay, MDA-MB-231. As to conditions: Homo sapiens, 72 h, read-out: Growth inhibition (%) ± SEM; for inhibition at 10 µM: MDA-MB-231, 10 μM; for inhibition at 30 µM: MDA-MB-231, 30 μM.
Excerpt: as §1, §2

In experiment [5] the test system is caspase-3. As to the kind of experiment: Caspase-3 activity colorimetric assay. The conditions noted are these: HeLa. Here is the method:
as §3

For experiment [6], the system named is caspase-9. Kind of experiment: Caspase-9 activity colorimetric assay. The conditions noted are these: HeLa. Here is the method:
as §3

The test system of experiment [7] is C33A. Kind of experiment: MTT antiproliferative assay, C33A. As to conditions: Homo sapiens, C-33-A, 72 h, read-out: Growth inhibition (%) ± SEM.
Excerpt: as §1, §2

Experiment [8] deals with hTERT-HME1. As to the kind of experiment: MTT assay, immortalized mammary gland epithelial cells hTERT-HME1. As to conditions: Homo sapiens; for inhibition at 10 µM: hTERT-HME1, 10 μM; for inhibition at 10 µM / inhibition at 30 µM: 72 h, read-out: Growth inhibition (%) ± SEM; for inhibition at 30 µM: hTERT-HME1, 30 μM.
Excerpt: as §1, §2

By inhibition is commonly meant how much of the control response was suppressed. In general, IC50 refers to the concentration at which inhibition is half-maximal.

Turning to `C[C@]12CC[C@H]3[C@@H](CCC4=CC(=O)CC[C@@H]43)[C@@H]1CC[C@@H]2O` [Compound 1, 19-nortestosterone, reference compound], the inhibition at 10 µM in experiment [1] was less than 20%; in experiment [4] it was less than 20%; in experiment [7] it was less than 20%; in experiment [8], 16.9 ± 1.2%. The inhibition at 30 µM in experiment [1] was less than 20%; in experiment [4], 21.4 ± 1.2%; in experiment [7] it was 25.2 ± 1.7%; in experiment [8] it was 37.1%. The “apoptotic and necrotic cell populations (morphology)” value in experiment [2] is “substantial and concentration-dependent increase in both the apoptotic and necrotic cell populations”. In addition, the caspase-8 activity result in experiment [3] (72 h) is “less pronounced”. Also, the caspase-3 activity entry in experiment [5] (72 h) is “increased significantly”. Further, the caspase-9 activity entry in experiment [6] (72 h) was “activated the initiator caspases”.

Regarding `C[C@]12CC[C@H]3[C@@H](CCC4=CC(=O)CC[C@@H]43)[C@@H]1CC[C@H]2Cl` [Compound 3], the inhibition at 10 µM in experiment [1] was less than 20%; in experiment [4], less than 20%; in experiment [7], less than 20%; in experiment [8], 76.2 ± 0.5%. Also, the inhibition at 30 µM is less than 20% in experiment [1], less than 20% in experiment [4], 61.7 ± 1.7% in experiment [7] and 99.9 ± 0.1% in experiment [8]. The “apoptotic and necrotic cell populations (morphology)” value in experiment [2] is “substantial and concentration-dependent increase in both the apoptotic and necrotic cell populations”. The caspase-8 activity result in experiment [3] (24 h) is “no change”. The caspase-3 activity entry in experiment [5] (24 h, 5.0 μM) was “enhanced caspase-3 activity”. Besides, the caspase-9 activity result in experiment [6] (24 h) is “significantly elevated”. Moreover, the IC50 in experiment [8] (hTERT-HME1, 72 h, read-out: calculated IC50 value) is 4.63 µM.
